# From patent US6117849A, “S-(+)-adenosylmethionine and 3'-azido-2', 3'-dideoxy-nucleoside complexes as potent inhibitors of HIV-replication” (Symbio Herborn Group GmbH & Co., priority 1996, dated 2000)
# Experiments:
# HIV = test: TPA- or cytokine-stimulated HIV replication/expression; type: cell-based; settings: in vitro
# [1] = target: T1, reverse transcriptase (RT) (HIV-1 M:B_HXB2R, UniProt P04585); settings: read-out: apparent Ki (recalculated, corrected for DTT); recalculated from literature
# From the text: The disclosed inhibitory concentrations of SAM is meant as the apparent concentration of SAM, which inhibits under their in vitro assay conditions 50% of the RT activity. […] Inhibitory experiments using DTT, e g. for protecting sulfhydryl groups of the enzyme (RT), in their assay have to be omitted or corrected for, respectively, since DTT act as a strong reducing agent, particularly for SAM or SAM-tosylate-bis-sulfate which potentiates the reduction due to the sulfonium group which is being reduced to the sulfinium group, or to S-S-complexes comprising of SAM and DDT, respectively. […] Note, the determined inhibitory concentrations are not the ones which can be correlated to the ones according to Michaelis-Mentenkinetics.
# HIV-1 isolate of HIV IIB = test: HIV replication in de novo infected lymphocyte cultures, viral core protein p24 endpoint; type: cell-based, HIV-1 (in human peripheral blood lymphocytes); settings: FIG. 1, p24
# Protocol: For this purpose, SAM has been tested in a dose response titration ranging from 1000 μg/mL to 10 μg/mL final concentrations for the ability to inhibit HIV replication in de novo infected cells. Endpoint in this assay was the quantitative determination of the concentration of the viral core protein p24 as described by Mueller et al. (Mueller, Ch., Moritz, R., Prigge, G., Weitzel, D., Kunze, R., Kage, A., Koettgen, E., Fresenius Z. Anal. Chem.,330, 352-353, 1988). […] The toxicity testing of cellular proliferation was performed according to J. Mosmann (J. Immunological Methods, 65, 55-63, 1983). […] All experiments were carried out in triplicate cultures, including those for the various concentrations of the molecular complexes tested.--The lymphocytes were infected with a standardized preparation of HIV-1 isolate of HIV IIB. The cells were sedimented by low speed centrifugation, the sediment resuspended in the assay buffer (standard), and the resuspended cells were inoculated by adjusting to the following conditions: 100 ng of viral core protein p24/mL and 3200 pg HIV RNA/mL, respectively. Normally 3×10^8 lymphocytes were suspended in 1 mL if the HIV inoculum, and incubated at 37° C. for 60 minutes. After washing the cells twice with 50 mL of culture medium the cells were resuspended at a concentration of 3×10^6 cells/mL in culture medium which contains 10 units/mL of human recombinant interleukin-2. 100 μL of this cell suspension were added to 100 μL of the pre-diluted solution of the compounds to be tested, without adding any salt or protein. The entire assay was cultivated in humidified atmosphere in the presence of 5% CO2 at 37° C. After the 4th day of infection the viral replication was determined in the lymphocyte cultures. The end point of the titration was the determination of the viral core protein p24 in the supernatant of each of the lymphocyte cultures. 150 μL of the supernatant were removed and transferred to a vial containing 50 μL/well SDS at a final concentration of 0.08% (w/w). The concentration of the synthesized p24 by the HIV infected cells was determined according to Mueller et al., using recombinant p24 as a standard for calibration.
# IL-β, IL-2 = test: Cytokine biosynthesis after stimulation of lymphocytes; type: cell-based; settings: after phytohemagglutination stimulation
# thymidylate kinase = test: Inhibition of thymidylate kinase, in vitro; type: biochemical
# [2] = human, in vivo
# [3] = tested on: RT (triphosphatase activity); test: Triphosphatase activity in presence of RT and phosphate; type: biochemical, HIV; settings: in the presence of phosphate (Pi)
# From the text: Furthermore the efficiency of such molecular complexes is also seen on the rate at which they are metabolized intra cellularly to the corresponding free ddNMP available to be further transformed to the triphosphate derivative active on the RT, which is enhanced due to these molecular complexes as shown through the kinetics in-vitro and in-vivo. In order to make this transformation feasible, the unique and stable molecular conformation of these complexes and their solvation facilitates the inhibitory and regulatory effects on RT, lipid penetration and inhibitory effects on the growing infective RNA or DNA polymeric chains. The avoidance of e.g. AZT-monophosphate accumulation, similarly also for other ddN N3 compounds, which causes severe inhibition of cellular dTMP kinase, resulting in a blockade of further phosphorylation steps, while on the contrary, the disclosed molecular complexes, appear to be unable to induce the same effects and is clearly incapable of inhibiting their own phosphorylation. This is completely different from those of the single administration of the components, e.g. SAM and ddN≈N3. […] This is also endorsed by the findings that the kinetics of inhibition on the RT enzyme is influenced by the presence of inorganic phosphate resulting in restoring active ATP during the presence of SAM. […]
# [4] = target: T1, reverse transcriptase (RT); type: biochemical; set-up: A2: RT in cord-blood lymphocyte cultures infected with HIV from an AIDS patient
# Protocol: The second in-vitro test uses the enzymatic activity of RT, testing the kinetic and inhibitory action of the molecular complexes. The cloning of the RT in biologically active form made it possible to have large quantities of the RT enzyme available for these studies (RT from Sigma, lot # R 9376).
# The steady state reaction conditions for RT are chosen that approximate physiological conditions are met: pH 7.45 (37° C.), ionic strength of 150 mM, routinely a buffer was employed consisting of 50 mM TRIS-HCl, 100 mM KCl, 5 mM MgCl2, the addition of 10 μg/mL bovine serum albumin were included. […] The aforementioned precautions designed to avoid potential reduction of SAM in the presence of DTT are taken into accounts to preclude any distortions of the kinetic behavior of the RT enzyme in the presence of the various substrates e.g. as our molecular compounds. […] The enzyme concentrations of RT was approx. 20 nM, T-P (template-primer) […] and 25 μM of [^3 H]-dNTP (assay conditions are modified fro those of Mayunder et al., J. biol. Chem.,263, 15657, 1988). […] In case both parameters are effected to the same extent, then the inhibition is uncompetitive. In order to facilitate the difference between SAM kinetics and those for the molecular complexes we studied first SAM kinetics and subsequently the kinetics in the presence of the molecular complexes. […] Similar experiments have been carries out with dGTP.
# The enzyme was assayed with 50 nM primer sites on poly (rA): oligo (dT), and variable concentrations of [^3 H] dTP as substrates in a reaction mixture as described above at pH 7.5 (37° C.).
smiles,measurement,setting,value
"C[S+](CC[C@H](N)C(=O)O)C[C@H]1O[C@@H](n2cnc3c(N)ncnc32)[C@H](O)[C@@H]1O (single isomer, unassigned; (+)) [SAM, (+)-5'-[(3-amino-3-carboxypropyl)methylsulfinio]-5'-deoxyadenosine]",cytokine-activation of HIV expression,HIV,does not inhibit cytokine-activation of HIV expression in vitro
same,Ki,[1],200 to 250 nM
same,inhibition of HIV replication,HIV-1 isolate of HIV IIB,inhibited HIV replication in a dose dependent response
same,"cytokine biosynthesis (IL-β, IL-2)","IL-β, IL-2",influenced
same,inhibition of thymidylate kinase,thymidylate kinase,reversal of the inhibition of the thymidylate kinase
same,CSF peak of SAM relative to plasma,[2],lower and more prolonged for healthy patients
same,triphosphatase activity,[3],stimulated
same,stability in RT assay with DTT,[4],destroy SAM
same,fraction unbound,in vitro,0.95 to 0.97
